Experimental data as given in patent publication US20250049827A1, “A PHARMACEUTICAL COMPOSITION FOR THE TREATMENT OF OTIC INFECTIONS” (Intervet Inc., priority 2021, published 2025).
Where two headings read alike, the source gives them in different places.

Key:
[1] = cited from earlier work
[2] = Pilot ear depletion study: gentamicin concentration in ear wax; format: in vivo
Experimental: An ear depletion study was performed to assess gentamicin concentration in ear wax. It was determined that the gentamicin concentrations detected in the ear wax were high enough to be effective against gentamicin resistant Pseudomonas aeruginosa.

[3] = system: gentamicin resistant Pseudomonas aeruginosa; conditions: MIC studies performed in the US; cited from earlier work

Molecule | solubility ([1]; in acetone and chloroform) | solubility ([1]; in methanol, ethanol, and isopropanol) | solubility ([1]; in tetrahydro furan) | solubility ([1]; in water) | Total Gentamicin Concentration (mg/g) [Mean ± STD] ([2]; 24 hours post dose, Left ear) [mg/g] | Total Gentamicin Concentration (mg/g) [Mean ± STD] ([2]; 24 hours post dose, Right ear) [mg/g] | Total Gentamicin Concentration (mg/g) [Mean ± STD] ([2]; 72 hours post dose, Left ear) [mg/g] | Total Gentamicin Concentration (mg/g) [Mean ± STD] ([2]; 72 hours post dose, Right ear) [mg/g] | Total Gentamicin Concentration (mg/g) [Mean ± STD] ([2]; 168 hours post dose, Left ear) [mg/g] | Total Gentamicin Concentration (mg/g) [Mean ± STD] ([2]; 168 hours post dose, Right ear) [mg/g] | Total Gentamicin Concentration (mg/g) [Mean ± STD] ([2]; 240 hours post dose, Left ear) [mg/g] | Total Gentamicin Concentration (mg/g) [Mean ± STD] ([2]; 240 hours post dose, Right ear) [mg/g] | Total Gentamicin Concentration (mg/g) [Mean ± STD] ([2]; 336 hours post dose, Left ear) [mg/g] | Total Gentamicin Concentration (mg/g) [Mean ± STD] ([2]; 336 hours post dose, Right ear) [mg/g] | highest MIC [3] [µg/mL]
C[C@@H]1C[C@H]2[C@@H]3CCC4=CC(=O)C=C[C@]4(C)[C@@]3(Cl)[C@@H](O)C[C@]2(C)[C@@]1(OC(=O)c1ccco1)C(=O)CCl [Mometasone Furoate, 9,21-Dichloro-1 1 (beta), 17-dihydroxy-16 (alpha)-methylpregna-1,4-diene-3,20-dione 17-(2 Furoate)] | soluble | slightly soluble | freely soluble | practically insoluble | – | – | – | – | – | – | – | – | – | – | –
Gentamicin | – | – | – | – | 11.51 ± 8.68 | 11.96 ± 10.11 | 8.15 ± 2.94 | 8.66 ± 5.00 | 3.78 ± 1.55 | 3.97 ± 3.38 | 1.87 ± 1.49 | 2.29 ± 1.36 | 1.46 ± 2.08 | 2.25 ± 2.44 | 64
